{"source": "patent US12642791B2", "about": "“Inhibitors of lysyl oxidases” (UNIVERSITY OF SOUTH CAROLINA, priority 2021, dated 2026)", "key": {"[1]": {"test_system": "cellular lysyl oxidase (LOX) activity, MDA-MB-231 cells", "test": "Cell-based lysyl oxidase activity assay (Abcam kit)", "design": "species or system human", "settings": "read-out: cellular LOX activity", "from_the_text": "As the available LOX inhibitors are either not very potent or have toxicity, the inventors developed a robust screening pipeline shown in FIG. 28 to identify potent and safe LOX-specific and pan-LOX inhibitors. Briefly, a high-throughput cell-based LOX activity (Abcam) screen (HTS) was done for more than 5,000 drug-like compounds from the EXPRESS-Pick diversified library (4,480 molecules, ChemBridge) and Tocriscreen library of bioactive compounds (1,280 compounds, Tocris), each at a single concentration of 10 μM. […] The toxic molecules were counter screened with cell cytotoxicity assay and filtered out.\nFIGS. 34. […] IC50 for cellular lysyl oxidase activity upon treatment of MDA-MB-231 cells with different LOX inhibitors. uM=microM.\nFor cell-based lysyl oxidase activity, fluorometric Lysly Oxidase Activity Assay Kit (Abcam, USA) was used according to manufacturer's instructions. Briefly, after the treatment, 50 μl of supernatant from each well was incubated with reagent mix and fluorescence measured in multimode-reader at Ex/Em=540/590 nm wavelength."}, "[2]": {"settings": "human, in vivo; cited from earlier work"}, "[3]": {"test_system": "kidney fibrosis, lung fibrosis, myelofibrosis and pancreatic cancer models", "settings": "in vivo; cited from earlier work"}, "HFF": {"test_system": "HFF", "test": "Viability assay in normal cells", "assay_type": "cell-based", "settings": "human foreskin fibroblast cell line", "from_the_text": "(§1) FIG. 32. 6232 derivatives, 6403 and 6415, show no cytotoxicity in normal cells. Viability assay in normal breast cell line, MCF12A, human foreskin fibroblast cell line, HFF and human endothelial cell line, HUVEC treated with 6403 or 6415."}, "HUVEC": {"test_system": "HUVEC", "test": "Viability assay in normal cells", "assay_type": "cell-based", "settings": "human endothelial cell line", "from_the_text": "as §1"}, "[4]": {"test_system": "MDA-MB-231 cells embedded in collagen I", "test": "ECM crosslinking by collagen and fibronectin immunofluorescence staining", "assay_type": "cell-based, human", "description": "FIG. 31. […] A. Inhibition of LOX activity in MDA-MB-231 cells treated with 5 μM of the LOX inhibitors. B. Doxorubicin sensitization with 6232 and its analogs, 6403 and 6415, in 3D collagen-I culture. C. Collagen and fibronectin staining of vehicle or 6232 or 6403 or 6415-treated MDA-MB-231 cells embedded in collagen I. BAPN is used as a positive control.\nImmunofluorescence staining of cells was done in μ-Slide 8-well glass bottom chambers (Ibidi, Germany). Cells were fixed with 4% paraformaldehyde for 20 min, permeabilized with 0.5% Triton X-100 for 10 min and blocked in 5% BSA-PBS. Samples were incubated with primary (Collagen I, Fibronectin, F-actin, a-SMA) and secondary Alexa Fluor 647 or 488-labeled antibodies for 1.5 hours at room temperature. Cells were also counterstained with DAPI for 5 min. Images were acquired using ZEN 2012 SP5 (Black) LSM 700 (Carl Zeiss, DE)."}, "MCF12A": {"test_system": "MCF12A", "test": "Viability assay in normal cells", "assay_type": "cell-based, human", "settings": "normal breast cell line", "from_the_text": "as §1"}, "[5]": {"test_system": "LOXL2-mediated collagen oxidation and cross-linking", "settings": "in vitro; cited from earlier work"}, "LOXL3": {"biological_target": "LOXL3 (Homo sapiens, UniProt P58215)", "sequence (P58215 26-753, species assumed)": "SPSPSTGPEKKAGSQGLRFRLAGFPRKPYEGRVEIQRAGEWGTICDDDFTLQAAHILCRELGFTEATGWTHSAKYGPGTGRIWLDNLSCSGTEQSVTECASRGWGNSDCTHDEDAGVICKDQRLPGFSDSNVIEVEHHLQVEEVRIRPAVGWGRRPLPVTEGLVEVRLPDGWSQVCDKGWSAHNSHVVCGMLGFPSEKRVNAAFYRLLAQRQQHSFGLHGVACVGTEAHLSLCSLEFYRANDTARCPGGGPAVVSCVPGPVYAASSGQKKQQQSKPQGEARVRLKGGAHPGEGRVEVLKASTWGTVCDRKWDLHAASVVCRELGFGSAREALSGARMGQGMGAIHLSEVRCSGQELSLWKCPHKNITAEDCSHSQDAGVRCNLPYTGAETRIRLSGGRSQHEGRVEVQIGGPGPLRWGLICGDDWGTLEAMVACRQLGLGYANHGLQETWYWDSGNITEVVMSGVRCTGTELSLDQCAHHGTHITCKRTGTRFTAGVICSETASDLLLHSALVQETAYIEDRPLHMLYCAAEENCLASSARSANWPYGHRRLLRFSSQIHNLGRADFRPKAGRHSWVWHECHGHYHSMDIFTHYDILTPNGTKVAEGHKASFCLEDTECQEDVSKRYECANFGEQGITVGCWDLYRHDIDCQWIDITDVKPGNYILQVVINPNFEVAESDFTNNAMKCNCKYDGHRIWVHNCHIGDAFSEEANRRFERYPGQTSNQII", "settings": "cited from earlier work"}, "LOXL2 [6]": {"biological_target": "T1, LOXL2 (Homo sapiens, UniProt Q9Y4K0)", "T1 sequence (Q9Y4K0 26-774)": "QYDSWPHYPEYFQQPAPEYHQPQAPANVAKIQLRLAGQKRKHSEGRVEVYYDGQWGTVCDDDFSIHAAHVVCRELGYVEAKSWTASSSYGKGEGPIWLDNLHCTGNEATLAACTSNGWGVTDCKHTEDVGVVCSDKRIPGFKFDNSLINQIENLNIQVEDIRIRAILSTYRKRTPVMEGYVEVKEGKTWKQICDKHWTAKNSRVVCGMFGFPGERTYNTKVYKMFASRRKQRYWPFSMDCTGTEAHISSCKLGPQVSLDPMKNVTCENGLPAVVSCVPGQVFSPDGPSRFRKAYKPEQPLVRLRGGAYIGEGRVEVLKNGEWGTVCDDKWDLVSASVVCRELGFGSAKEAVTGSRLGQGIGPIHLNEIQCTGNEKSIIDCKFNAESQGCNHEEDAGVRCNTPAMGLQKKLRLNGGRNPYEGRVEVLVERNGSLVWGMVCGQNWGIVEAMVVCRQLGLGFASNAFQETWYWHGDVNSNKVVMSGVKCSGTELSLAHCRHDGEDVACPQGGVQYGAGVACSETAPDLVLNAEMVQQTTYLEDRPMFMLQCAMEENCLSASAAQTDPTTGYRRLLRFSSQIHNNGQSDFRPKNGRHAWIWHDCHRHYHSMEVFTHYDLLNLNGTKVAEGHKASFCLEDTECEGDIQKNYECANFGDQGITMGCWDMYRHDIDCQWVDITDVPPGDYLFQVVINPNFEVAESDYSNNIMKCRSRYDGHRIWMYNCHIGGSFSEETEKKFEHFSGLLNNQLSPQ", "settings": "cited from earlier work"}, "breast cancer models": {"test_system": "breast cancer models", "settings": "daily by oral gavage, 70 mg/kg; cited from earlier work"}, "LOXL2 [7]": {"biological_target": "T1, LOXL2", "design": "Simtuzumab only targets extracellular LOXL2; host or cells: pancreatic cancer patients", "settings": "in combination with gemcitabine; cited from earlier work"}}, "data": [{"molecule": "COCCC(=O)Nc1ccc(Nc2nc(-c3sc(N)nc3C)cs2)cc1", "note": "[compound 6425, N-[4-[[4-(2-amino-4-methyl-thiazol-5-yl)thiazol-2-yl]amino]phenyl]-3-methoxy-propanamide]", "values": [{"measurement": "IC50", "setting": "[1]", "value": 7.5, "unit": "µM"}]}, {"molecule": "NC/C=C(\\F)CS(=O)(=O)c1cccc2cccnc12", "note": "[PXS-5505]", "values": [{"measurement": "tolerability", "setting": "[2]", "value": "well tolerated"}, {"measurement": "fibrosis", "setting": "[3]", "value": "significant reductions in fibrosis"}]}, {"molecule": "CCCCC(=O)Nc1ccc(Nc2nc(-c3sc(N)nc3C)cs2)cc1", "note": "[compound 6426, N-[4-[[4-(2-amino-4-methyl-thiazol-5-yl)thiazol-2-yl]amino]phenyl]pentanamide]", "values": [{"measurement": "IC50", "setting": "[1]", "value": 2, "unit": "µM"}]}, {"molecule": "Cc1nc(N)sc1-c1csc(Nc2ccc(S(N)(=O)=O)cc2)n1", "note": "[compound 6405, 4-((2′-amino-4′-methyl-[4,5′-bithiazol]-2-yl)amino)benzenesulfonamide]", "values": [{"measurement": "cell viability (cytotoxicity in normal cells)", "setting": "HFF", "value": "No significant effect on the viability"}, {"measurement": "cell viability (cytotoxicity in normal cells)", "setting": "HUVEC", "value": "No significant effect on the viability"}, {"measurement": "ECM crosslinking (collagen and fibronectin staining)", "setting": "[4]", "value": "decrease in ECM crosslinking"}, {"measurement": "cell viability (cytotoxicity in normal cells)", "setting": "MCF12A", "value": "No significant effect on the viability"}]}, {"molecule": "Cc1c(-c2cccc(S(=O)(=O)N(C)C)c2)c2ncccc2n1C/C(F)=C/CN.Cl.Cl", "note": "[PXS-5153A]", "values": [{"measurement": "LOXL2-mediated collagen oxidation and cross-linking", "setting": "[5]", "value": "reduce LOXL2-mediated collagen oxidation and cross-linking, in a dose-dependent manner"}, {"measurement": "enzyme inhibition", "setting": "LOXL3", "value": "complete and irreversible enzyme inhibition"}, {"measurement": "enzyme inhibition", "setting": "LOXL2 [6]", "value": "complete and irreversible enzyme inhibition"}]}, {"molecule": "CS(=O)(=O)c1cc(-c2ccccc2)cc(S(=O)(=O)c2ccc(CN)s2)c1", "note": "[CCT365623]", "values": [{"measurement": "metastasis", "setting": "breast cancer models", "value": "reduced metastasis"}, {"measurement": "tumor growth", "setting": "breast cancer models", "value": "decreased tumor growth"}]}, {"molecule": "Simtuzumab: non-competitive LOXL2 targeting humanized monoclonal antibody (antibody, chains of the INN, looked up, V domains shown) VH: QVQLVQSGAEVKKPGASVKVSCKASGYAFTYYLIEWVRQAPGQGLEWIGVINPGSGGTNYNEKFKGRATITADKSTSTAYMELSSLRSEDTAVYFCARNWMNFDYWGQGTTVTVSS VL: DIVMTQTPLSLSVTPGQPASISCRSSKSLLHSNGNTYLYWFLQKPGQSPQFLIYRMSNLASGVPDRFSGSGSGTDFTLKISRVEAEDVGVYYCMQHLEYPYTFGGGTKVEIK", "values": [{"measurement": "clinical benefit", "setting": "LOXL2 [7]", "value": "minimal"}, {"measurement": "tolerability", "setting": "LOXL2 [7]", "value": "well-tolerated"}]}]}
